# Laboratory results: US7396837B2, “Antitumoral analogs of lamellarins” (Pharma Mar, S.A.U., priority 2002, dated 2008)
# Experiments:
# Assay type in all cases: cell-based
# [1] = tested on: SKOV-3; experiment: SRB colorimetric cell growth inhibition assay, SKOV-3; settings: Homo sapiens; for GI50: SK-OV-3, SKOV-3, GI=growth inhibition, read-out: GI50 SKOV-3; for CC50 / IC (TGI): SK-OV-3, SKOV-3; for CC50: LC=cell killing (cytotoxic effect), read-out: LC50 SKOV-3; for IC (TGI): TGI=total growth inhibition (cytostatic effect), read-out: TGI SKOV-3
# Summary of the method: (§1)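 Growth and viability quantified by sulforhodamine B staining in 96-well microplates. Triplicate wells give mean ± SD; derived endpoints are GI, TGI (cytostatic) and LC (cytotoxic).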
# [2] = tested on: DU-145; experiment: SRB colorimetric cell growth inhibition assay, DU-145; settings: Homo sapiens, DU-145, DU-145; for GI50: GI=growth inhibition, read-out: GI50 DU-145; for CC50: LC=cell killing (cytotoxic effect), read-out: LC50 DU-145; for IC (TGI): TGI=total growth inhibition (cytostatic effect), read-out: TGI DU-145
# Summary of the method: (§2)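 Triplicate-well SRB colorimetry following continuous sample exposure of human tumour cells; reported parameters are GI, TGI for cytostatic effect, and LC for cytotoxic effect.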
# [3] = SRB colorimetric cell growth inhibition assay, H-MEC-1; settings: human, H-MEC-1 cells, H-MEC-1; LC=cell killing (cytotoxic effect); read-out: LC50 H-MEC-1
# Summary of the method: as §1
# [4] = tested on: H-MEC-1; experiment: as above; settings: Homo sapiens, HMEC-1, H-MEC-1; for GI50: GI=growth inhibition; for IC (TGI): TGI=total growth inhibition (cytostatic effect), read-out: TGI H-MEC-1
# Summary of the method: as §1
# [5] = tested on: LoVo-Dox; experiment: SRB colorimetric cell growth inhibition assay, LoVo-Dox (MDR); settings: Homo sapiens, LOVO-DOX; for GI50: GI=growth inhibition, read-out: GI50 LOVO-DOX; for CC50: cell killing (cytotoxic effect), read-out: LC50 LOVO-DOX; for IC (TGI): total growth inhibition (cytostatic effect), read-out: TGI LOVO-DOX
# Summary of the method: as §2
# [6] = tested on: IGROV-ET; experiment: SRB colorimetric cell growth inhibition assay, IGROV-ET (ET-743 resistant); settings: Homo sapiens, IGROV-ET; for GI50: GI=growth inhibition, read-out: GI50 IGROV-ET; for CC50: LC=cell killing (cytotoxic effect), read-out: LC50 IGROV-ET; for IC (TGI): TGI=total growth inhibition (cytostatic effect), read-out: TGI IGROV-ET
# Summary of the method: as §2
# [7] = tested on: LoVo; experiment: SRB colorimetric cell growth inhibition assay, LoVo; settings: Homo sapiens, LoVo; for GI50: GI=growth inhibition, read-out: GI50 LOVO; for CC50: cell killing (cytotoxic effect), read-out: LC50 LOVO; for IC (TGI): total growth inhibition (cytostatic effect), read-out: TGI LOVO
# Summary of the method: as §2
# [8] = tested on: A-549; experiment: SRB colorimetric cell growth inhibition assay, A-549; settings: Homo sapiens, A549, A-549; for GI50: GI=growth inhibition, read-out: GI50 A-549; for CC50: cell killing (cytotoxic effect), read-out: LC50 A-549; for IC (TGI): total growth inhibition (cytostatic effect), read-out: TGI A-549
# Summary of the method: as §2
# [9] = tested on: HT-29; experiment: SRB colorimetric cell growth inhibition assay, HT-29; settings: Homo sapiens, HT-29, HT-29; for GI50: GI=growth inhibition, read-out: GI50 HT-29; for CC50: cell killing (cytotoxic effect), read-out: LC50 HT-29; for IC (TGI): total growth inhibition (cytostatic effect), read-out: TGI HT-29
# Summary of the method: as §2
# [10] = tested on: SK-BR-3; experiment: SRB colorimetric cell growth inhibition assay, SK-BR-3; settings: Homo sapiens, SK-BR-3, SK-BR-3; for GI50: GI=growth inhibition, read-out: GI50 SK-BR-3; for CC50: LC=cell killing (cytotoxic effect), read-out: LC50 SK-BR-3; for IC (TGI): TGI=total growth inhibition (cytostatic effect), read-out: TGI SK-BR-3
# Summary of the method: as §2
# [11] = tested on: IGROV; experiment: SRB colorimetric cell growth inhibition assay, IGROV; settings: Homo sapiens, IGROV; for GI50: GI=growth inhibition, read-out: GI50 IGROV; for CC50: LC=cell killing (cytotoxic effect), read-out: LC50 IGROV; for IC (TGI): TGI=total growth inhibition (cytostatic effect), read-out: TGI IGROV
# Summary of the method: as §2
# [12] = tested on: K-562; experiment: SRB colorimetric cell growth inhibition assay, K-562; settings: Homo sapiens, K562, K-562; for GI50: GI=growth inhibition, read-out: GI50 K-562; for CC50: cell killing (cytotoxic effect), read-out: LC50 K-562; for IC (TGI): total growth inhibition (cytostatic effect), read-out: TGI K-562
# Summary of the method: as §2
# [13] = tested on: LNCaP; experiment: SRB colorimetric cell growth inhibition assay, LNCaP; settings: Homo sapiens, LNCaP, LN-caP; for GI50: GI=growth inhibition, read-out: GI50 LN-caP; for CC50: LC=cell killing (cytotoxic effect), read-out: LC50 LN-caP; for IC (TGI): TGI=total growth inhibition (cytostatic effect), read-out: TGI LN-caP
# Summary of the method: as §2
# [14] = tested on: PANC-1; experiment: SRB colorimetric cell growth inhibition assay, PANC-1; settings: Homo sapiens, PANC-1, PANC-1; for GI50: GI=growth inhibition, read-out: GI50 PANC-1; for CC50: cell killing (cytotoxic effect), read-out: LC50 PANC-1; for IC (TGI): total growth inhibition (cytostatic effect), read-out: TGI PANC-1
# Summary of the method: as §2
# [15] = tested on: SK-MEL-28; experiment: SRB colorimetric cell growth inhibition assay, SK-MEL-28; settings: Homo sapiens, SK-MEL-28, MEL-28; for GI50: GI=growth inhibition, read-out: GI50 MEL-28; for CC50: LC=cell killing (cytotoxic effect), read-out: LC50 MEL-28; for IC (TGI): TGI=total growth inhibition (cytostatic effect), read-out: TGI MEL-28
# Summary of the method: as §2
compound,measurement,setting,value
COc1cc(-c2c3n(c4c(=O)oc5cc(OC(=O)[C@@H](N)Cc6ccccc6)c(OC)cc5c24)CCc2cc(OC(=O)[C@@H](N)Cc4ccccc4)c(OC)cc2-3)ccc1OC(=O)[C@@H](N)Cc1ccccc1 [Compound 115],GI50,[1],1.1 µM
same,CC50,[1],5.13 µM
same,IC (TGI),[1],2.38 µM
same,GI50,[2],1.63 µM
same,CC50,[2],7.78 µM
same,IC (TGI),[2],4.29 µM
same,CC50,[3],2.96 µM
same,GI50,[4],0.213 µM
same,IC (TGI),[4],0.452 µM
same,GI50,[5],1.76 µM
same,CC50,[5],7.78 µM
same,IC (TGI),[5],4.78 µM
same,GI50,[6],1.7 µM
same,CC50,[6],7.78 µM
same,IC (TGI),[6],5.38 µM
same,GI50,[7],0.703 µM
same,CC50,[7],4.41 µM
same,IC (TGI),[7],1.82 µM
same,GI50,[8],1.65 µM
same,CC50,[8],5.87 µM
same,IC (TGI),[8],3.11 µM
same,GI50,[9],2.92 µM
same,CC50,[9],7.78 µM
same,IC (TGI),[9],6.46 µM
same,GI50,[10],1.87 µM
same,CC50,[10],7.53 µM
same,IC (TGI),[10],3.75 µM
same,GI50,[11],1.07 µM
same,CC50,[11],6.26 µM
same,IC (TGI),[11],2.58 µM
same,GI50,[12],0.536 µM
same,CC50,[12],7.78 µM
same,IC (TGI),[12],2.47 µM
same,GI50,[13],0.67 µM
same,CC50,[13],3.87 µM
same,IC (TGI),[13],1.67 µM
same,GI50,[14],2.47 µM
same,CC50,[14],7.78 µM
same,IC (TGI),[14],7.78 µM
same,GI50,[15],1.45 µM
same,CC50,[15],4.83 µM
same,IC (TGI),[15],2.65 µM
COc1cc(-c2c3n(c4c(=O)oc5cc(OC(=O)[C@@H]6CCCN6)c(OC)cc5c24)CCc2c-3cc(OC)c(OC)c2OC(=O)[C@@H]2CCCN2)ccc1OC(=O)[C@@H]1CCCN1 [Compound 118],GI50,[1],2.02 µM
same,CC50,[1],8.22 µM
same,IC (TGI),[1],4.08 µM
same,GI50,[2],1.6 µM
same,CC50,[2],5.64 µM
same,IC (TGI),[2],3 µM
same,CC50,[3],6.45 µM
same,GI50,[4],1.45 µM
same,IC (TGI),[4],3.06 µM
same,GI50,[5],0.45 µM
same,CC50,[5],3.86 µM
same,IC (TGI),[5],1.3 µM
same,GI50,[6],0.876 µM
same,CC50,[6],6.17 µM
same,IC (TGI),[6],2.33 µM
same,GI50,[7],1.35 µM
same,CC50,[7],5.43 µM
same,IC (TGI),[7],2.7 µM
same,GI50,[8],1.8 µM
same,CC50,[8],6.99 µM
same,IC (TGI),[8],3.55 µM
same,GI50,[9],1.92 µM
same,CC50,[9],6.59 µM
same,IC (TGI),[9],3.56 µM
same,GI50,[10],0.639 µM
same,CC50,[10],6.25 µM
same,IC (TGI),[10],2.04 µM
same,GI50,[11],0.97 µM
same,CC50,[11],5.47 µM
same,IC (TGI),[11],2.3 µM
same,GI50,[12],1.17 µM
same,CC50,[12],6.57 µM
same,IC (TGI),[12],2.77 µM
same,GI50,[13],0.987 µM
same,CC50,[13],4.76 µM
same,IC (TGI),[13],2.16 µM
same,GI50,[14],1.08 µM
same,CC50,[14],5.35 µM
same,IC (TGI),[14],2.4 µM
same,GI50,[15],1.65 µM
same,CC50,[15],5.49 µM
same,IC (TGI),[15],3 µM
